The structures appear in SMILES notation. Calls of active or inactive are those of the source. The rule behind the calls is not given here.

The data set has as its system rodent carcinogenicity bioassays, tumor incidence. Nature of the data set: CCRIS carcinogenicity studies. A digest of the protocol:
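NCI-built, expert-reviewed records of carcinogenicity and related test outcomes (mutagenicity, tumor promotion/inhibition) compiled from published and report sources, historical span 1985-2011, not updated.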

As to `CCN(COC(C)=O)N=O`, the carcinogen call is, setting by setting: (Species: RAT, Strain/Sex: F344/FEMALE, Route: SUBCUTANEOUS, Dose: 5.5 MG/KG 1/WK FOR 10 WK, Tumor Site: Type of Lesion: INJECTION SITE: MALIGNANT FIBROUS HISTIOCYTOMA, LUNG: ADENOMA, ADENOCARCINOMA, SQUAMOUS CELL CARCINOMA) “active; positive”; (Species: RAT, Strain/Sex: F344/MALE, Route: SUBCUTANEOUS, Dose: 5.5 MG/KG 1/WK FOR 10 WK, Tumor Site: Type of Lesion: INJECTION SITE: MALIGNANT FIBROUS HISTIOCYTOMA, LUNG: ADENOMA, ADENOCARCINOMA, SQUAMOUS CELL CARCINOMA, THYROID GLAND: C, Tumor Site: Type of Lesion: INJECTION SITE: MALIGNANT FIBROUS HISTIOCYTOMA, LUNG: ADENOMA, ADENOCARCINOMA, SQUAMOUS CELL CARCINOMA, THYROID GLAND: C) “active; positive”.

As to `O=[N+]([O-])c1cc2ccc3cc4ccccc4c4ccc(c1)c2c34`, the carcinogen call (Species: MOUSE, Strain/Sex: B6C3F1/MALE, Route: INTRAPERITONEAL, Dose: 0, 400 NMOL IN 35 µL DMSO ON DAYS 1 (1/7 TOTAL DOSE), 8 (2/7 TOTAL DOSE), AND 15 (4/7 TOTAL DOSE) AFTER BIRTH (STUDY DUR, Tumor Site: Type of Lesion: LIVER: ADENOMA OR CARCINOMA) is “active; positive”.

Take `O=P1(O)OP(=O)(O)OP(=O)(O)O1`: the carcinogen call was “inactive; negative” (Species: RAT, Strain/Sex: F344/FEMALE, Route: ORAL, Dose: 0, 1.5, 3% IN DIET FOR DURATION OF STUDY (STUDY DURATION: 108 WK), Dose: 0, 1.5, 3% IN DIET FOR DURATION OF STUDY (STUDY DURATION: 108 WK)) and “inactive; negative” (Species: RAT, Strain/Sex: F344/MALE, Route: ORAL, Dose: 0, 1.5, 3% IN DIET FOR DURATION OF STUDY (STUDY DURATION: 108 WK), Dose: 0, 1.5, 3% IN DIET FOR DURATION OF STUDY (STUDY DURATION: 108 WK)).

With `Cn1c(N)nc2c3ccc(=O)[nH]c3ccc21`, the carcinogen call (Species: MOUSE, Strain/Sex: CD-1/FEMALE, Route: INTRAPERITONEAL, ORAL, Dose: 0, 5 µL OF A 21.7 MG/ML SOLUTION IN DMSO ON DAYS 1, 3, 5, 7, 10, 13, 17, 21, 24 AND 28 OF LIFE THEN 2/WK TO WK 10 FOLLOW, Tumor Site: Type of Lesion: LIVER: CARCINOMA) is “active; positive”; the carcinogen call (Species: MOUSE, Strain/Sex: CD-1/MALE, Route: INTRAPERITONEAL, ORAL, Dose: 0, 5 µL OF A 21.7 MG/ML SOLUTION IN DMSO ON DAYS 1, 3, 5, 7, 10, 13, 17, 21, 24 AND 28 OF LIFE THEN 2/WK TO WK 10 FOLLOW) was “inactive; negative”; the carcinogen call (Species: RAT, Strain/Sex: F344/MALE, Route: INTRARECTAL, Dose: 0, 54.8 MG/KG IN 1.7 ML/KG DMSO INFUSED 3/WK FOR 2 MO THEN 2/WK FOR DURATION OF STUDY (STUDY DURATION: 21 MO)) was “inactive; negative”.

For `OCc1ccccc1`, the carcinogen call was “inactive; negative” (Species: MOUSE, Strain/Sex: B6C3F1/F, Route: GAVAGE, Dose: 0, 100, 200 MG/KG IN CORN OIL 5D/WK FOR 103 WK (STUDY DURATION: 106 WK), Dose: 0, 100, 200 MG/KG IN CORN OIL 5D/WK FOR 103 WK (STUDY DURATION: 106 WK)); “inactive; negative” (Species: MOUSE, Strain/Sex: B6C3F1/M, Route: GAVAGE, Dose: 0, 100, 200 MG/KG IN CORN OIL 5D/WK FOR 103 WK (STUDY DURATION: 106 WK), Dose: 0, 100, 200 MG/KG IN CORN OIL 5D/WK FOR 103 WK (STUDY DURATION: 106 WK)); “inactive; negative” (Species: RAT, Strain/Sex: F344/F, Route: GAVAGE, Dose: 0, 200, 400 MG/KG IN CORN OIL 5D/WK FOR 103 WK (STUDY DURATION: 105 WK), Dose: 0, 200, 400 MG/KG IN CORN OIL 5D/WK FOR 103 WK (STUDY DURATION: 105 WK)); “inactive; negative” (Species: RAT, Strain/Sex: F344/M, Route: GAVAGE, Dose: 0, 200, 400 MG/KG IN CORN OIL 5D/WK FOR 103 WK (STUDY DURATION: 105 WK), Dose: 0, 200, 400 MG/KG IN CORN OIL 5D/WK FOR 103 WK (STUDY DURATION: 105 WK)).

On to `Nc1ccc(N=Nc2ccccc2)cc1`, for which the carcinogen call was “inactive; negative” (Species: MOUSE, Strain/Sex: B6C3F1/FEMALE, Route: INTRAPERITONEAL, Dose: 0, 0.3 UMOL/G IN TRIOCTANOIN ONCE ON DAY 1 FOLLOWED BY 0.4 UMOL/G ONCE ON DAY 8, 15 AND 22 (STUDY DURATION: UP TO 10 MO)); “active; positive” (Species: MOUSE, Strain/Sex: B6C3F1/MALE, Route: INTRAPERITONEAL, Dose: 0, 0.017, 0.05, 0.15, 0.45 UMOL/G ONCE IN TRIOCTANOIN (STUDY DURATION: 10 MO), Dose: 0, 0.017, 0.05, 0.15, 0.45 UMOL/G ONCE IN TRIOCTANOIN (STUDY DURATION: 10 MO), Tumor Site: Type of Lesion: LIVER: HEPATOMA); “active; positive” (Species: MOUSE, Strain/Sex: B6C3F1/MALE, Route: INTRAPERITONEAL, Dose: 0, 0.3 UMOL/G IN TRIOCTANOIN ONCE ON DAY 1 FOLLOWED BY 0.4 UMOL/G ONCE ON DAY 8, 15 AND 22 (STUDY DURATION: UP TO 10 MO), Tumor Site: Type of Lesion: LIVER: HEPATOMA); “active; positive” (Species: MOUSE, Strain/Sex: C3H/MALE, Route: INTRAPERITONEAL, Dose: 0, 0.45 UMOL/G ONCE IN TRIOCTANOIN (STUDY DURATION: 11 MO), Tumor Site: Type of Lesion: LIVER: HEPATOMA); “active; positive” (Species: MOUSE, Strain/Sex: C57BL/MALE, Route: INTRAPERITONEAL, Dose: 0, 0.45 UMOL ONCE IN TRIOCTANOIN (STUDY DURATION: 11 MO), Tumor Site: Type of Lesion: LIVER: HEPATOMA); “active; positive” (Species: RAT, Route: DERMAL, Tumor Site: Type of Lesion: INTEGUMENTARY SYSTEM (SKIN)). Further, the carcinogen call reads like this: (Species: RAT, Route: ORAL, Tumor Site: Type of Lesion: LIVER) “active; positive”; (Species: RAT, Strain/Sex: F344/MALE, Route: INTRAPERITONEAL, Dose: 0, 0.3 UMOL/G IN TRIOCTANOIN ONCE ON DAY 1 FOLLOWED BY 0.4 UMOL/G ONCE ON D 8, 15 AND 22 (STUDY DURATION: 24 MO)) “inactive; negative”.

In the case of `CCN(CC)c1ccc2c(-c3ccccc3C(=O)O)c3ccc(=[N+](CC)CC)cc-3oc2c1`, the carcinogen call is, setting by setting: (Species: MOUSE, Strain/Sex: ICR/FEMALE, Route: DERMAL, Dose: 0, 1 MG IN 0.1 ML DISTILLED WATER 2/WK FOR A MEAN TOTAL DOSE OF 121.4 MG (STUDY DURATION: 18 MO)) “inactive; negative”; (Species: MOUSE, Strain/Sex: ICR/MALE, Route: DERMAL, Dose: 0, 1 MG IN 0.1 ML DISTILLED WATER 2/WK FOR A MEAN TOTAL DOSE OF 121.4 MG (STUDY DURATION: 18 MO)) “inactive; negative”.

These data come from PubChem BioAssay AID1259411 (Chemical Carcinogenesis Research Information System (CCRIS), 2018).
